Measured values: ChEMBL document CHEMBL5518172, “Discovery of hydroxamate as a promising scaffold dually inhibiting metallo- and serine-β-lactamases” (Eur J Med Chem, 2024)
The source made the active and inactive calls. No cut-off for these calls is given here.

Key:
Escherichia coli [1] = test: Antibacterial activity against Escherichia coli BL21 (DE3) harboring metallo-beta-lactamase IMP-1 assessed as inhibition of bacterial growth upto 512 microg/ml by microdilution checkerboard assay; type: functional, organism-based; settings: dose <= 512.0 µg/ml
Escherichia coli [2] = test: Antibacterial activity against Escherichia coli harboring NDM-1 infected in Kunming mouse model assessed as reduction in bacterial load in liver at 20 mg/kg, ip; type: functional, organism-based
Bacteria [3] = test: Irreversible inhibition of recombinant serine beta lactamase OXA-48 (unknown origin) expressed in Escherichia coli BL21 (DE3) cells using cefazolin as substrate assessed as reduction in residual activity at 5 uM preincubated for 6 hrs followed by dialysis and measured after 24 hrs
[4] = Inhibition of recombinant serine beta lactamase KPC-2 (unknown origin) expressed in Escherichia coli BL21 (DE3) cells using meropenem as substrate by spectrometric analysis; parameters: species or system Bacteria
Escherichia coli [5] = test: Synergistic antibacterial activity against Escherichia coli BL21 (DE3) harboring serine beta lactamase KPC-2 assessed as decrease in bacterial colony at 128 microg/ml incubated for 12 hrs in presence of meropenem by imaging analysis; type: functional, organism-based; settings: dose 128.0 µg/ml
[6] = target: Metallo-beta-lactamase type 2 (Bacteria) (UniProt C7C422); test: (§1) Destabilization of recombinant NDM-1 (unknown origin) expressed in Escherichia coli BL21 (DE3) cells assessed as thermal stabilization by measuring melting temperature at 50 uM incubated under 25 to 80 degreeC by SYPRO orange dye based thermal shift assay (reference value: 52.6 degreeC)
Metallo-beta-lactamase type 2 (Bacteria), sequence (C7C422 whole entry): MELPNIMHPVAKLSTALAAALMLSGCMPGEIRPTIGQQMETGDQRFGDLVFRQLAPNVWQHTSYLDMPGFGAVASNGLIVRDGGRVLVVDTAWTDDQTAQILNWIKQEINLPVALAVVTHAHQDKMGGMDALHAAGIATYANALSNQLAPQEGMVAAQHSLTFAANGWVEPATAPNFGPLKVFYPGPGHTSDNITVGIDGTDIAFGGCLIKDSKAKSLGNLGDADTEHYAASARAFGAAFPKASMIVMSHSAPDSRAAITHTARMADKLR

Escherichia coli [7] = test: Synergistic antibacterial activity against Escherichia coli BL21 (DE3) harboring serine beta lactamase OXA-48 assessed as meropenem MIC at 64 microg/ml measured after 16 hrs by CLSI protocol based broth microdilution method (reference value: 1 microg/ml); type: functional; settings: dose 64 µg/ml
[8] = target: Metallo-beta-lactamase type 2 (Bacteria) (UniProt C7C422); test: Inhibition of recombinant NDM-1 (unknown origin) expressed in Escherichia coli BL21 (DE3) cells using meropenem as substrate at 20 uM by spectrometric analysis relative to control
[9] = target: Metallo-beta-lactamase type 2 (Bacteria) (UniProt C7C422); test: Inhibition of recombinant NDM-1 (unknown origin) expressed in Escherichia coli BL21 (DE3) cells assessed as reduction in residual activity at 0.3 to 5 uM; settings: dose 0.3-5 µM, time 20.0 hrs, TDE = time-dependent effect
[10] = Inhibition of recombinant serine beta lactamase OXA-48 (unknown origin) expressed in Escherichia coli BL21 (DE3) cells using meropenem as substrate by spectrometric analysis; parameters: species or system Bacteria
Bacteria [11] = test: Inhibition of recombinant serine beta lactamase OXA-48 (unknown origin) expressed in Escherichia coli BL21 (DE3) cells using meropenem as substrate at 20 uM by spectrometric analysis relative to control
[12] = target: Metallo-beta-lactamase type 2 (Bacteria) (UniProt C7C422); test: Inhibition of recombinant NDM-1 (unknown origin) expressed in Escherichia coli BL21 (DE3) cells assessed as reduction in residual activity incubated for 20 hrs; settings: dose 0.3-5 µM
Escherichia coli [13] = test: Synergistic antibacterial activity against Escherichia coli clinical isolate 08 assessed as meropenem MIC at 64 microg/ml measured after 16 hrs by CLSI protocol based broth microdilution method (reference value: 128 microg/ml); type: functional; settings: dose 64 µg/ml
Escherichia coli [14] = test: Synergistic antibacterial activity against Escherichia coli clinical isolate 10 assessed as decrease in bacterial colony at 128 microg/ml incubated for 12 hrs in presence of meropenem by imaging analysis; type: functional, organism-based; settings: dose 128.0 µg/ml
Escherichia coli [15] = test: Synergistic antibacterial activity against Escherichia coli BL21 (DE3) harboring metallo-beta-lactamase IMP-1 assessed as decrease in bacterial colony at 128 microg/ml incubated for 12 hrs in presence of meropenem by imaging analysis; type: functional, organism-based; settings: dose 128.0 µg/ml
Bacteria [16] = test: Inhibition of recombinant serine beta lactamase KPC-2 (unknown origin) expressed in Escherichia coli BL21 (DE3) cells using cefazolin as substrate assessed as reduction in residual activity; settings: dose 0.075-20 µM
Bacteria [17] = test: Inhibition of recombinant metallo-beta-lactamase IMP-1 (unknown origin) expressed in Escherichia coli BL21 (DE3) cells using cefazolin as substrate assessed as residual activity at 20 uM relative to control
Bacteria [18] = test: Inhibition of recombinant serine beta lactamase OXA-48 (unknown origin) expressed in Escherichia coli BL21 (DE3) cells assessed as reduction in residual activity at 0.3 to 5 uM; settings: dose 0.3-5 µM, time 120.0 min, TDE = time-dependent effect
Escherichia coli [19] = test: Antibacterial activity against Escherichia coli BL21 (DE3) harboring serine beta lactamase OXA-48 assessed as inhibition of bacterial growth upto 512 microg/ml by microdilution checkerboard assay; type: functional, organism-based; settings: dose <= 512.0 µg/ml
Escherichia coli [20] = test: Synergistic antibacterial activity against Escherichia coli BL21 (DE3) harboring NDM-1 assessed as decrease in bacterial colony at 128 microg/ml incubated for 12 hrs in presence of meropenem by imaging analysis; type: functional, organism-based; settings: dose 128.0 µg/ml
Escherichia coli [21] = test: Synergistic antibacterial activity against Escherichia coli clinical isolate 04 assessed as fold decrease in meropenem MIC at 64 microg/ml measured after 16 hrs by CLSI protocol based broth microdilution method; type: functional; settings: dose 64 µg/ml
Escherichia coli [22] = test: Synergistic antibacterial activity against Escherichia coli clinical isolate 06 assessed as meropenem MIC at 64 microg/ml measured after 16 hrs by CLSI protocol based broth microdilution method (reference value: 128 microg/ml); type: functional; settings: dose 64 µg/ml
Bacteria [23] = test: Inhibition of recombinant metallo-beta-lactamase IMP-1 (unknown origin) expressed in Escherichia coli BL21 (DE3) cells using cefazolin as substrate at 20 uM by spectrometric analysis relative to control
Escherichia coli [24] = test: Synergistic antibacterial activity against Escherichia coli BL21 (DE3) harboring NDM-1 assessed as reduction in meropenem MIC upto 256 microg/ml in presence of meropenem by microdilution checkerboard assay; type: functional, organism-based; settings: dose <= 256.0 µg/ml
Bacteria [25] = test: Inhibition of recombinant IMP-1 (unknown origin) expressed in Escherichia coli BL21 (DE3) cells assessed as reduction in residual activity incubated for 20 hrs; settings: dose 0.25-5 µM
Bacteria [26] = test: Inhibition of recombinant metallo-beta-lactamase L-1 (unknown origin) expressed in Escherichia coli BL21 (DE3) cells using cefazolin as substrate at 20 uM by spectrometric analysis relative to control
Bacteria [27] = test: Inhibition of recombinant serine beta lactamase KPC-2 (unknown origin) expressed in Escherichia coli BL21 (DE3) cells assessed as reduction in residual activity at 0.25 to 5 uM; settings: dose 0.25-5 µM, time 360.0 min, TDE = time-dependent effect
Bacteria [28] = test: Inhibition of recombinant serine beta lactamase OXA-48 (unknown origin) expressed in Escherichia coli BL21 (DE3) cells assessed as reduction in residual activity incubated for 120 min; settings: dose 0.3-5 µM
[29] = target: Metallo-beta-lactamase type 2 (Bacteria) (UniProt C7C422); test: Inhibition of recombinant NDM-1 (unknown origin) expressed in Escherichia coli BL21 (DE3) cells assessed as maximal inhibition at 5 uM incubated for 5 hrs
Bacteria [30] = test: Inhibition of recombinant serine beta lactamase OXA-48 (unknown origin) expressed in Escherichia coli BL21 (DE3) cells assessed as maximal inhibition at 5 uM measured after 0.5 hrs
Bacteria [31] = test: Inhibition of recombinant metallo-beta-lactamase IMP-1 (unknown origin) expressed in Escherichia coli BL21 (DE3) cells using cefazolin as substrate assessed as reduction in residual activity; settings: dose 0.075-20 µM
Bacteria [32] = test: as §1, with “Binding affinity to” for “Destabilization of”, “metallo-beta-lactamase IMP-1” for “NDM-1”, “measuring change in” for “measuring”, “71.9” for “52.6”

Q: With `O=C(CCCc1ccccc1)NOC(=O)OCc1ccccc1` as the molecule, how does the Activity (Escherichia coli [1]) read?
A: inactive

Q: What about the Activity (Escherichia coli [2]) of the same molecule?
A: inactive

Q: What about the inhibition (Bacteria [3]) of the same molecule?
A: Active

Q: What about the IC50 [4] of the same molecule?
A: 570 nM

Q: What about the Activity (Escherichia coli [5]) of the same molecule?
A: Active

Q: What about the Tm [6] of the same molecule?
A: 49.8 °C

Q: And the MIC (Escherichia coli [7])?
A: 0.5 µg/mL

Q: And the inhibition [8]?
A: > 90%

Q: What about the inhibition [9] of the same molecule?
A: Tde

Q: What about the IC50 [10] of the same molecule?
A: 1010 nM

Q: And the inhibition (Bacteria [11])?
A: > 90%

Q: And the inhibition [12]?
A: Dose-Dependent Effect

Q: What about the MIC (Escherichia coli [13]) of the same molecule?
A: 64 µg/mL

Q: What about the Activity (Escherichia coli [14]) of the same molecule?
A: Active

Q: And the Activity (Escherichia coli [15])?
A: Active

Q: What about the inhibition (Bacteria [16]) of the same molecule?
A: Dose-Dependent Effect

Q: What about the Activity (Bacteria [17]) of the same molecule?
A: < 10%

Q: And the inhibition (Bacteria [18])?
A: Tde

Q: And the Activity (Escherichia coli [19])?
A: inactive

Q: And the Activity (Escherichia coli [20])?
A: Active

Q: And the “fold change (FC)” value (Escherichia coli [21])?
A: 2

Q: What about the MIC (Escherichia coli [22]) of the same molecule?
A: 64 µg/mL

Q: What about the inhibition (Bacteria [23]) of the same molecule?
A: > 90%

Q: And the Activity (Escherichia coli [24])?
A: Active

Q: And the inhibition (Bacteria [25])?
A: Dose-Dependent Effect

Q: What about the inhibition (Bacteria [26]) of the same molecule?
A: < 42%

Q: What about the inhibition (Bacteria [27]) of the same molecule?
A: Tde

Q: What about the inhibition (Bacteria [28]) of the same molecule?
A: Dose-Dependent Effect

Q: And the inhibition [29]?
A: Active

Q: And the inhibition (Bacteria [30])?
A: Active

Q: And the inhibition (Bacteria [31])?
A: Dose-Dependent Effect

Q: And the Tm (Bacteria [32])?
A: 74.3 °C
